Measured values published in patent US12012411B2, “Viral replication inhibitors” (Katholieke Universiteit Leuven, priority 2011, dated 2024).

Assays:
DENV-2 NGC = assay: Antiviral activity against DENV-2 NGC in Vero-B cells (viral RNA load by RT-qPCR); type: cell-based, Dengue virus; settings: Dengue virus, DENV2, Vero B, DENV-2 in Vero-B cells; inhibition of viral RNA replication by 50% (Table 3)
in vitro = settings: African green monkey; for CC50 at 4 days: uninfected quiescent Vero-B cells

SMILES | EC50 (DENV-2 NGC) | CC50 at 4 days (in vitro) | CC50 (in vitro)
COc1cccc(NC(C(=O)c2c[nH]c3ccc(S(=O)(=O)N(C)C)cc23)c2ccccc2)c1 (stereo not shown) [CPD-129] | 1.09 µM | > 108 µM | –
COc1cccc(NC(C(=O)c2c[nH]c3ccccc23)c2ccc(C#N)c(F)c2)c1 (stereo not shown) [CPD-132] | 0.05 µM | 12 µM | –
COc1cccc(NC(C(=O)c2c[nH]c3cc(O)ccc23)c2ccccc2)c1 (stereo not shown) [CPD-134] | 0.46 µM | 49 µM | –
COc1cccc(NC(C(=O)c2c[nH]c3cc(C(=O)O)ccc23)c2ccccc2)c1 (stereo not shown) [CPD-135] | 40.7 µM | > 124 µM | –
COCCn1cc(C(=O)C(Nc2cccc(OC)c2)c2ccccc2)c2ccccc21 (stereo not shown) [CPD-136] | 0.22 µM | – | > 120 µM
COc1cccc(NC(C(=O)c2c[nH]c3cc(CO)ccc23)c2ccccc2)c1 (stereo not shown) [CPD-140] | 2.15 µM | 53 µM | –
CNC(=O)c1cccc(NC(C(=O)c2c[nH]c3ccccc23)c2ccccc2)c1 (stereo not shown) [CPD-170] | 0.44 µM | 26 µM | –
CC(=O)Nc1cccc(NC(C(=O)c2c[nH]c3ccccc23)c2ccccc2)c1 (stereo not shown) [CPD-174] | 10.1 µM | 61 µM | –
O=C(c1c[nH]c2ccccc12)C(Nc1cccc(CO)c1)c1ccccc1 (stereo not shown) [CPD-179] | 5.3 µM | 135 µM | –
CC(NC(C(=O)c1c[nH]c2ccccc12)c1ccccc1)c1ccco1 (stereo not shown) [CPD-180] | 57 µM | > 145 µM | –
O=C(c1c[nH]c2ccccc12)C(Nc1cccc(N2CCCC2=O)c1)c1ccccc1 (stereo not shown) [CPD-181] | 4.22 µM | > 122 µM | –
O=C(c1c[nH]c2ccccc12)C(NC1CCOc2ccccc21)c1ccccc1 (stereo not shown) [CPD-182] | 3.01 µM | 12 µM | –
CCCN1CCC(NC(C(=O)c2c[nH]c3ccccc23)c2ccccc2)CC1 (stereo not shown) [CPD-184] | 22.4 µM | 70 µM | –
CCc1cccc2c(C(=O)C(Nc3ccc(NC(=O)CN4CCOCC4)cc3)c3ccccc3)c[nH]c12 (stereo not shown) [CPD-186] | 4.35 µM | 40 µM | –
NS(=O)(=O)c1cccc(NC(C(=O)c2c[nH]c3ccccc23)c2ccccc2)c1 (stereo not shown) [CPD-187] | 3.18 µM | 58 µM | –
CN(Cc1ccco1)C(C(=O)c1c[nH]c2ccccc12)c1ccccc1 (stereo not shown) [CPD-189] | 0.93 µM | > 145 µM | –
O=C(c1c[nH]c2ccccc12)C(NCC1COc2ccccc2O1)c1ccccc1 (stereo not shown) [CPD-190] | 1.71 µM | 11 µM | –
O=C(c1c[nH]c2ccccc12)C(NC1CCSc2ccccc21)c1ccccc1 (stereo not shown) [CPD-191] | 2.58 µM | 13 µM | –
CCOc1ccc(NC(C(=O)c2c[nH]c3ccccc23)c2ccccc2)cc1CO (stereo not shown) [CPD-192] | 5.62 µM | 50 µM | –
COc1cccc(NC(C(=O)c2c[nH]c3cccnc23)c2ccccc2)c1 (stereo not shown) [CPD-195] | 12.7 µM | 65 µM | –
COc1cccc(NC(C(=O)c2cnc3ccccn23)c2ccccc2)c1 (stereo not shown) [CPD-196] | 62.6 µM | > 139 µM | –
COc1cccc(NC(C(=O)c2cnn3ccccc23)c2ccccc2)c1 (stereo not shown) [CPD-197] | 3.3 µM | > 139 µM | –
COc1cccc(NC(C(=O)c2n[nH]c3ccccc23)c2ccccc2)c1 (stereo not shown) [CPD-198] | 0.14 µM | 16 µM | –
COc1cc(NC(C(=O)c2csc3ccccc23)c2cn3ccccc3n2)ccn1 (stereo not shown) [CPD-199] | 24.9 µM | > 120 µM | –

SMILES | EC50 (DENV-2 NGC) | CC50 at 4 days (in vitro) | CC50 (in vitro)
COc1cccc(NC(C(=O)c2c[nH]c3cnccc23)c2ccccc2)c1 (stereo not shown) [CPD-200] | 2.24 µM | 54 µM | –
COc1cccc(NC(C(=O)c2c[nH]c3ccncc23)c2ccccc2)c1 (stereo not shown) [CPD-201] | 12.2 µM | 74 µM | –
COc1cccc(NC(C(=O)c2csc3c2CCN(C)C3)c2ccccc2)c1 (stereo not shown) [CPD-202] | 8.33 µM | 104 µM | –
O=C(c1c[nH]c2ccccc12)C(Nc1ccnc(F)c1)c1ccccc1 (stereo not shown) [CPD-207] | 3.83 µM | 16 µM | –
COc1cccc(NC(C(=O)c2cn(S(=O)(=O)c3cn(C)cn3)c3ccccc23)c2ccccc2)c1 (stereo not shown) [CPD-209] | 1.12 µM | > 100 µM | –
CCS(=O)(=O)n1cc(C(=O)C(Nc2cccc(OC)c2)c2ccccc2)c2ccccc21 (stereo not shown) [CPD-211] | 2.83 µM | > 111 µM | –
COc1cccc(NC(C(=O)c2c[nH]c3ccccc23)c2cccnc2OC)c1 (stereo not shown) [CPD-215] | 0.16 µM | 14 µM | –
COc1cccc(NC(C(=O)c2cn(CCN3CCOCC3)c3ccccc23)c2ccccc2)c1 (stereo not shown) [CPD-216] | 0.84 µM | – | > 106 µM
COc1cccc(NC(C(=O)c2cn(S(=O)(=O)C3CCNCC3)c3ccccc23)c2ccccc2)c1 (stereo not shown) [CPD-217] | 0.25 µM | 11 µM | –
COc1cc(NC(C(=O)c2c[nH]c3ccccc23)c2ccccc2)ccc1C#N (stereo not shown) [CPD-218] | 2.39 µM | 13 µM | –
COc1cccc(NC(C(=O)c2nn(C)c3c2CNCC3)c2ccccc2)c1 (stereo not shown) [CPD-221] | 29.3 µM | 80 µM | –
COc1cccc(NC(C(=O)c2nn(C)c3c2CN(C)CC3)c2ccccc2)c1 (stereo not shown) [CPD-223] | 58 µM | > 128 µM | –
COc1cccc(NC(C(=O)c2c[nH]c3c(C)cccc23)c2ccccc2)c1 (stereo not shown) [CPD-224] | 0.05 µM | > 134 µM | –
COc1cccc(NC(C(=O)c2c[nH]c3ccc(CN(C)C)cc23)c2ccccc2)c1 (stereo not shown) [CPD-228] | 1.62 µM | 13 µM | –
COc1cccc(NC(C(=O)c2c[nH]c3cccc(OC)c23)c2ccccc2)c1 (stereo not shown) [CPD-231] | 1.22 µM | 18 µM | –
COc1cccc(NC(C(=O)c2c[nH]c3ccccc23)c2ccc(N(C)C)nc2)c1 (stereo not shown) [CPD-239] | 22.7 µM | > 125 µM | –
CCOc1cncc(NC(C(=O)c2c[nH]c3ccccc23)c2ccccc2)c1 (stereo not shown) [CPD-246] | 0.32 µM | 16 µM | –
CC(C)Oc1cncc(NC(C(=O)c2c[nH]c3ccccc23)c2ccccc2)c1 (stereo not shown) [CPD-247] | 0.42 µM | 15 µM | –
CCc1cncc(NC(C(=O)c2c[nH]c3ccccc23)c2ccccc2)c1 (stereo not shown) [CPD-248] | 0.56 µM | 15 µM | –
CCOc1ccc(C(Nc2cccc(OC)c2)C(=O)c2c[nH]c3ccccc23)cn1 (stereo not shown) [CPD-250] | 0.22 µM | 15 µM | –
COc1cccc(NC(C(=O)c2c[nH]c3cccc(C)c23)c2ccccc2)c1 (stereo not shown) [CPD-251] | 0.07 µM | 14 µM | –
COc1cc(NC(C(=O)c2c[nH]c3ccccc23)c2ccccc2)cnc1N(C)C (stereo not shown) [CPD-257] | 0.45 µM | 17 µM | –
COc1cncc(NC(C(=O)c2nn(C)c3ccccc23)c2ccccc2)c1 (stereo not shown) [CPD-259] | 0.54 µM | 14 µM | –
CNc1ncc(NC(C(=O)c2c[nH]c3ccccc23)c2ccccc2)cc1OC (stereo not shown) [CPD-261] | 0.39 µM | 15 µM | –

SMILES | EC50 (DENV-2 NGC) | CC50 at 4 days (in vitro) | CC50 (in vitro)
COc1cc(CN(C)C)cc(NC(C(=O)c2c[nH]c3ccccc23)c2ccccc2)c1 (stereo not shown) [CPD-263] | 2.18 µM | 13 µM | –
COc1cccc(NC(C(=O)c2nn(C)c3ccccc23)c2ccc(OC)nc2)c1 (stereo not shown) [CPD-264] | 0.51 µM | > 124 µM | –
COc1cccc(NC(C(=O)c2c[nH]c3ccccc23)c2cc(C)n(C)n2)c1 (stereo not shown) [CPD-267] | 1.3 µM | 79 µM | –
COc1cccc(NC(C(=O)c2c[nH]c3ccccc23)c2ccc(OC(C)C)nc2)c1 (stereo not shown) [CPD-268] | 0.46 µM | 15 µM | –
O=C(c1c[nH]c2ccccc12)C(Nc1cncc(OC(F)F)c1)c1ccccc1 (stereo not shown) [CPD-269] | 0.48 µM | 13 µM | –
COc1cccc(NC(C(=O)c2nn(C)c3ccccc23)c2cnc(OC)cn2)c1 (stereo not shown) [CPD-272] | 0.47 µM | > 124 µM | –
COc1cccc(NC(C(=O)c2c[nH]c3ccccc23)c2cnccn2)c1 (stereo not shown) [CPD-274] | 0.39 µM | 100 µM | –
COc1cccc(NC(C(=O)c2nn(C)c3ccc(C#N)cc23)c2ccccc2)c1 (stereo not shown) [CPD-275] | 9.96 µM | > 126 µM | –
COc1cncc(NC(C(=O)c2nn(C)c3ccccc23)c2ccccc2)n1 (stereo not shown) [CPD-276] | 2.62 µM | 23 µM | –
COc1cncc(NC(C(=O)c2c[nH]c3ccccc23)c2cccnc2)n1 (stereo not shown) [CPD-280] | 0.78 µM | > 139 µM | –
COc1ccc(C(Nc2cncc(OC)n2)C(=O)c2c[nH]c3ccccc23)cn1 (stereo not shown) [CPD-284] | 0.62 µM | 74 µM | –
COc1cccc(NC(C(=O)c2nn(C)c3cc(C#N)ccc23)c2ccccc2)c1 (stereo not shown) [CPD-286] | 1.05 µM | > 126 µM | –
COc1cncc(NC(C(=O)c2c[nH]c3cc(F)ccc23)c2ccccc2)n1 (stereo not shown) [CPD-287] | 0.44 µM | > 132 µM | –
COc1cncc(NC(C(=O)c2c[nH]c3ccccc23)c2cc3ccccn3n2)n1 (stereo not shown) [CPD-290] | 0.88 µM | > 125 µM | –
COc1cccc(NC(C(=O)c2cccc3[nH]ccc23)c2ccccc2)c1 (stereo not shown) [CPD-302] | 0.65 µM | 15 µM | –
COc1cccc(NC(C(=O)c2c[nH]c3ccccc23)c2cc3n(n2)CCOC3)c1 (stereo not shown) [CPD-311] | 2.58 µM | 77 µM | –
COc1cccc(NC(C(=O)c2c[nH]c3ccccc23)c2cncc(OC)c2)c1 (stereo not shown) [CPD-312] | 4.67 µM | 69 µM | –
COc1cccc(NC(C(=O)c2noc3ccccc23)c2ccccc2)c1 (stereo not shown) [CPD-330] | 4.63 µM | > 139 µM | –
COc1cc(OC)nc(NC(C(=O)c2c[nH]c3ccccc23)c2ccccc2)n1 (stereo not shown) [CPD-347] | 0.98 µM | 6 µM | –
COc1cc(NC(C(=O)c2c[nH]c3ccccc23)c2ccccc2)ccc1F (stereo not shown) [CPD-356] | 0.12 µM | 13 µM | –
COc1cc(NC(C(=O)c2cn(C)c3c(CCO)cccc23)c2ccccc2)cc(OC)c1 (stereo not shown) [CPD-358] | 0.18 µM | 63 µM | –
COc1cc(NC(C(=O)c2c[nH]c3c(CO)cccc23)c2ccccc2)cc(OC)c1 (stereo not shown) [CPD-362] | 0.09 µM | 41 µM | –
COc1cncc(NC(C(=O)c2c[nH]c3c(CCO)cccc23)c2ccccc2)c1 (stereo not shown) [CPD-364] | 1.12 µM | 62 µM | –
